# Test results from US20190336519A1, “APPLICATION OF ALBIFLORIN AS INDOLEAMINE 2,3-DIOXYGENASE (IDO) INHIBITOR” (priority 2017, published 2019).
# “Also recorded” adds a separate entry of the source.
# Key:
# [1] = test system: IL-6, TNF-α, CORT in mouse hippocampal tissue; experiment: ELISA of inflammatory factors and CORT in mouse hippocampal tissue after modeling with LPS; format: in vivo; conditions: LPS mice, gavage 7 days
# Protocol: (§1) The mice were randomly divided into 6 groups (16 for each group): Blank group, Model group, Fluoxetine hydrochloride (a positive drug) group (10 mg/kg), Low dose of albiflorin group (3.5 mg/kg), Medium dose of albiflorin group (7 mg/kg), and High dose of albiflorin group (14 mg/kg), and administered continuously by gavage for 7 days.
# (§2) On the 7th day after administration, LPS was injected intraperitoneally (0.83 mg/kg) for modeling. At 16 h after the injection, the Open Field Test (OFT) was carried out; at 24 h after the injection, the Forced Swimming Test (FST) and Tail Suspension Test (TST) were carried out. Thereafter, the blood was taken by enucleating eyeball, and centrifuged to collect the plasma. After the mice were sacrificed, the hippocampal tissues were taken out and quickly frozen in liquid nitrogen, and stored at −80° C.
# (§3) 2. Determination of the effects of albiflorin and the positive drug fluoxetine on the concentrations of inflammatory factors IL-6, TNF-α, and PGE2, and glucocorticoid CORT in the mouse plasma and hippocampal tissue.
# (§4) The test data are shown in mean±SE, and originPro8.0 software was used for the statistical analysis of the data and plotting.
# An ELISA assay was used to detect the levels of inflammatory factors IL-6, TNF-α and PGE2, and CORT in the mouse hippocampal tissue.
# [2] = test system: melatonin receptors 1 (MT1); experiment: Western Blot of MT1 in hippocampal tissue of chronic unpredictable mild stress (CUMS) rats; format: in vivo, rat; conditions: for MT1 (folds relative to Blank group): CUMS rat hippocampal tissue, Mean±SE
# Text: (§5) 1. […] Western Blot was used to detect the effects of albiflorin on IDO and MT1, and the results are found in FIG. 1:
# (§6) Effects of albiflorin on indoleamine 2,3-dioxygenase (IDO) and melatonin receptors 1 (MT1) in the rat hippocampal tissue (Mean±SE)
# [3] = test system: indoleamine 2,3-dioxygenase (IDO); experiment: Western Blot of IDO in hippocampal tissue of chronic unpredictable mild stress (CUMS) rats; format: in vivo, rat; conditions: for IDO (folds relative to Blank group): CUMS rat hippocampal tissue, Mean±SE
# Text: as §5, §6
# [4] = test system: tryptophan metabolic pathway (kynurenine-quinolinic acid / serotonin-melatonin); experiment: Tryptophan metabolites in hippocampus of CUMS rats; format: in vivo, rat; conditions: after 7 days of administration (7 mg/kg, 14 mg/kg)
# [5] = test system: LPS-induced mouse inflammatory depression-like behaviors; experiment: Behavioral tests (Forced Swimming Test, Tail Suspension Test) in mice after modeling with LPS; format: in vivo; conditions: High dose group (14 mg/kg), gavage 7 days, 24 h after LPS
# Protocol: as §1
# 1. The behavioral tests: Forced Swimming Test (FST), Tail Suspension Test (TST) and Open Field Test (OFT)
# as §2, §4
# [6] = test system: IL-6, TNF-α, CORT in mouse plasma; experiment: Levels of inflammatory factors and CORT in mouse plasma after modeling with LPS; format: in vivo; conditions: LPS mice, gavage 7 days
# Protocol: as §1, §2, §3, §4
# IDO = biological target: T1, IDO (Mus musculus, UniProt P28776); experiment: Ratio of kynurenine/tryptophan (IDO activity) in mouse hippocampal tissue after modeling with LPS; format: in vivo; conditions: LPS mice, gavage 7 days
# T1 construct: ratio of kynurenine/tryptophan (KYN/TrP) in the mouse hippocampal tissue; from tissue; host or cells: mouse hippocampal tissue (LPS model)
# T1 sequence (P28776 whole entry): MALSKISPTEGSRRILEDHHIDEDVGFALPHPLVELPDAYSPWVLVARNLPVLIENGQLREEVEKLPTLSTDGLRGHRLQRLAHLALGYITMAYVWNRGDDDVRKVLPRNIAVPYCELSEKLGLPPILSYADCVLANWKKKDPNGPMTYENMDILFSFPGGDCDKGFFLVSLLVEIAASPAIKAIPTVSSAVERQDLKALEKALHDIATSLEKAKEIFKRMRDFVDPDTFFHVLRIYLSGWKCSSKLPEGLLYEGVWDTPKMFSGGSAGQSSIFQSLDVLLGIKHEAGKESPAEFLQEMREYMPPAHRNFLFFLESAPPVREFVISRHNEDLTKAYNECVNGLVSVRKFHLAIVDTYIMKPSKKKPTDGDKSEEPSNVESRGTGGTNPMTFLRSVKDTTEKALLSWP
# Protocol: as §1, §2
# 3. Determination of the effects of albiflorin and fluoxetine on expression of IDO in the mouse hippocampal tissue.
# as §4
# The activity of IDO in the hippocampus was expressed through the levels of KYN and TrP and the ratio of KYN/TrP.
# [7] = CUMS rat, after 7 days of administration (7 mg/day, 14 mg/day), P<0.01
# [8] = medium and high doses (7, 14 mg/kg)
smiles,measurement,setting,value
"C[C@]12C[C@@H](O)[C@@H]3C[C@@]1(O[C@@H]1O[C@H](CO)[C@@H](O)[C@H](O)[C@H]1O)[C@]3(COC(=O)c1ccccc1)C(=O)O2 [Albiflorin, albiflorin]",level of IL-6 in the mouse hippocampal tissue compared with Model group,[1]; High dose group (14 mg/kg),significantly decreased
same,level of TNF-α in the mouse hippocampal tissue compared with Model group,[1]; High dose group (14 mg/kg),significantly decreased
same,level of CORT in the hippocampal tissue,[1],substantially decreased
same,MT1 (folds relative to Blank group),[2]; 3.5 mg/kg,1.37 ± 0.013 folds relative to Blank group
same,MT1 (folds relative to Blank group),[2]; 7 mg/kg,1.39 ± 0.0014 folds relative to Blank group
same,MT1 (folds relative to Blank group),[2]; 14 mg/kg,1.39 ± 0.014 folds relative to Blank group
same,melatonin receptors 1 (MT1) in the rat hippocampus,[2]; [7],increased significantly
same,IDO (folds relative to Blank group),[3]; 3.5 mg/kg,1.46 ± 0.014 folds relative to Blank group
same,IDO (folds relative to Blank group),[3]; 7 mg/kg,1.02 ± 0.010 folds relative to Blank group
same,IDO (folds relative to Blank group),[3]; 14 mg/kg,0.80 ± 0.008 folds relative to Blank group
same,IDO activity in the rat hippocampus,[3]; [7],significantly inhibited
same,ratio of kynurenine to tryptophan (KYN/TrP),[4]; CUMS rat hippocampus,downregulated significantly
same,level of kynurenine in the rat hippocampus,"[4]; CUMS rat, P<0.01",decreased significantly
same,level of melatonin in the hippocampus,"[4]; CUMS rat, P<0.01",increased significantly
same,level of quinolinic acid in the rat hippocampus,"[4]; CUMS rat, P<0.01",decreased significantly
same,level of serotonin in the hippocampus,"[4]; CUMS rat, P<0.01",increased significantly
same,immobility time in the Tail Suspension Test compared with Model group,[5],significant difference
same,concentration of CORT in the mouse plasma,[6],substantially decrease
same,level of IL-6 in the mouse plasma,[6]; [8],substantially decreased
same,level of TNF-α in the mouse plasma,[6]; [8],substantially decreased
same,activity of IDO in the mouse hippocampal tissue,"IDO; High dose (14 mg/kg), 14 mg/kg",significantly inhibited; also recorded: decrease
same,ratio of kynurenine/tryptophan (KYN/TrP) in the mouse hippocampal tissue compared with Model group,"IDO; High dose group (14 mg/kg), P<0.05",decreased
"CNCCC(Oc1ccc(C(F)(F)F)cc1)c1ccccc1 (stereo not shown) [Fluoxetine, fluoxetine, reference compound]",MT1 (folds relative to Blank group),[2]; 10 mg/kg,0.50 ± 0.005 folds relative to Blank group
same,IDO (folds relative to Blank group),[3]; 10 mg/kg,1.29 ± 0.014 folds relative to Blank group
same,LPS-induced activation/overexpression of IDO in the hippocampus compared with Model group,IDO; 10 mg/kg,failed to be corrected
